Measurements as given in patent publication US6900189B2, “Analgesic and glucosamine compositions” (priority 2000, dated 2005).
Counter-ions that a name gives are not always drawn. Like-named read-outs stand apart in the source and are kept apart here.

Tests used:
[1] = tested on: acetylcholine induced abdominal constriction; assay: prevention of acetylcholine induced abdominal constriction in mice; type: in vivo; conditions: for ED50: Mus musculus, 0.5 h, analgesic alone, oral, mice, acetylcholine challenge 30 minutes after treatment
Experimental: Mature, male Swiss-Webster mice (weighing 25-30 g) were utilized in determining the analgesic effects of the compositions. The mice were all dosed orally with glucosamine sulfate, which was completely dissolved in distilled water, and a selected analgesic (ibuprofen, diclofenac, tramadol HCl, or acetaminophen), which was completely dissolved in distilled water or in distilled water containing 2% by volume of TWEEN®-80 containing 100% polysorbate 80. Mice were dosed at 10 mL/kg.
The procedure used in detecting and comparing the analgesic activity of different classes of analgesic drugs was the prevention of acetylcholine induced abdominal constriction in mice.
Mice were treated with various doses of glucosamine sulfate alone, analgesic alone, combined doses of glucosamine sulfate and analgesic, or vehicle such as distilled water containing 2% by volume of TWEEN®-80. Intraperitoneal injection of a challenge dose of acetylcholine bromide was administered 30 minutes after treatment. […] For scoring purposes an “abdominal constriction” was defined as a contraction of the abdominal musculature accompanied by arching of the back and extension of the limbs. […] Each mouse was tested only once.
Doses of the combinations were coded to permit complete randomization of the tests.

[2] = tested on: acetylcholine induced abdominal constriction; assay: as above; type: in vivo

`O=C(O)Cc1ccccc1Nc1c(Cl)cccc1Cl` [Diclofenac] gave an ED50 [1] of 1.14 mg/kg.
With `COc1ccc2c(c1)c(CC(=O)O)c(C)n2C(=O)c1ccc(Cl)cc1` [Indomethacin] the ED50 [1] was 3.66 mg/kg, the No. protected/no. tested ([2]; indomethacin 2.5 mg/kg alone) was 4/10 and the No. protected/no. tested ([2]; indomethacin 5.0 mg/kg alone) was 6/10. For the same molecule, the No. protected/no. tested ([2]; indomethacin 10.0 mg/kg alone) was 7/10.
In the case of `CC(=O)Nc1ccc(O)cc1` [Acetaminophen], the No. protected/no. tested ([1]; acetaminophen 62.5 mg/kg alone) is reported as 1/10, the No. protected/no. tested ([1]; acetaminophen 125 mg/kg alone) is reported as 4/10 and the No. protected/no. tested ([1]; acetaminophen 250 mg/kg alone) is reported as 8/10.
For `CC(=O)Oc1ccccc1C(=O)O` [Aspirin], the ED50 [1] was 109 mg/kg, the No. protected/no. tested ([2]; ASA 50 mg/kg alone) was 1/10 and the No. protected/no. tested ([2]; ASA 100 mg/kg alone) was 4/10. For the same molecule, the No. protected/no. tested ([2]; ASA 150 mg/kg alone) was 8/10 and the No. protected/no. tested ([2]; ASA 200 mg/kg alone) was 7/10.
For `CC(C)Cc1ccc(C(C)C(=O)O)cc1` (centres unmarked) [Ibuprofen, 2-(p-isobutylphenyl)propionic acid], the ED50 [1] was 26.1 ± 3.41 mg/kg, the No. protected/no. tested ([1]; ibuprofen 10 mg/kg alone) was 1/10 and the No. protected/no. tested ([1]; ibuprofen 13.91 mg/kg alone) was 1/10. The No. protected/no. tested ([1]; ibuprofen 20.0 mg/kg alone) was 4/10, the No. protected/no. tested ([1]; ibuprofen 41.74 mg/kg alone) was 8/10 and the No. protected/no. tested ([1]; ibuprofen 100 mg/kg alone) was 9/10. The No. protected/no. tested ([2]; ibuprofen 27.8 mg/kg alone) was 6/10 and the No. protected/no. tested ([2]; ibuprofen 30.0 mg/kg alone) was 6/10.
For `CC(C)Cc1ccc([C@H](C)C(=O)O)cc1` [S(+) Ibuprofen], the No. protected/no. tested ([2]; Group A: S(+) ibuprofen 15 mg/kg alone) was 2/10, the No. protected/no. tested ([2]; Group B: S(+) ibuprofen 30 mg/kg alone) was 4/10 and the No. protected/no. tested ([2]; Group C: S(+) ibuprofen 60 mg/kg alone) was 6/10. The No. protected/no. tested ([2]; Group D: S(+) ibuprofen 120 mg/kg alone) was 7/10.
`COc1cccc(C2(O)CCCCC2CN(C)C)c1` (centres unmarked) [Tramadol HCl] gave an ED50 ([2]; Mus musculus, 0.5 h, read-out: ED50 (alone)) of 8.05 mg/kg.
